Values quoted from earlier work as cited in patent US20090311315A1, “Multimicroparticulate Oral Pharmaceutical Form with Modified Release of Angiotensin II Receptor Antagonists” (FLAMEL TECHNOLOGIES, S.A., priority 2005, published 2009).

Details: in vivo

Compound	elimination half-life
CCOc1nc2cccc(C(=O)O)c2n1Cc1ccc(-c2ccccc2-c2nnn[nH]2)cc1 [cardesartan]	4 to 9 h
CCCCC(=O)N(Cc1ccc(-c2ccccc2-c2nnn[nH]2)cc1)[C@H](C(=O)O)C(C)C [valsartan]	4 to 6 h
eprosartan cilexitil	5 to 9 h
